# From patent publication US20250154525A1, “PLANT VIRUS MOVEMENT PROTEINS AND METHODS OF USING SAME” (Molecular Transfer, Inc., priority 2016, published 2025)
# Values joined by “and” are separate entries in the source; they are usually repeats but may differ in a detail not shown here. Identical values can stand only once.
# Test system: HeLa Cells
# Assay: GFP transfection with DOTMA/SEQ ID NO: 72 (fusogenic peptide)/peptide compared with Lipofectamine 2000
# Assay type: cell-based
# Settings: 0.1 μL of DOTMA/SEQ ID NO: 72/Peptide in well of a 96 well plate
# Description: (§1) Cells were plated to so that on the day of transfection the cells were 70% confluent in 96 well tissue culture plates. A DOMTA/DOPE Lipid solution (1:1 molar ratio) at 2 mg/mL in water were mixed with an equal volume cell surface ligand containing adhesion peptide, the plant virus movement protein, or peptide derived therefrom, that had the nucleic acid binding moiety RRRRRRRRRRRR (SEQ ID NO:109) or KKKKKKKKKKKKKKKK (SEQ ID NO: 102) covalently linked to the N-terminus, or C-terminus of each peptide during peptide synthesis. Peptides were at 2 mg/mL in water. The DOTMA/DOPE and the solution containing the cell surface ligand containing adhesion peptide, the plant virus movement protein, or peptide derived therefrom, surface ligand peptide the was diluted 1 to 1 (v/v) in water. DOMTA/DOPE/PEPTIDE solutions were added to 0.1 mL of a plasmid DNA solution (EF1Alpha eGFP plasmid) at 10 μg/mL in OptiMEM.
# (§2) All solutions were at room temperature. A volume of 0.2 mL of a 10 μg/mL solution of DNA was aliquoted into each well of a non-tissue cultured treated plate. 1-12 μL of transfection reagents were added to DNA solutions respectively. The transfection reagent and DNA solution was mixed by pipetting up and down twice. Transfection complexes were formed for 10 minutes. After 10 minutes, 0.01 or 0.02 mL of the transfection complex was added to cells. HuVEC, HeLa, human adult keratinocytes, human primary adult fibroblast, and A549 cells all respectively received 0.01 mL of the transfection complex. Human skeletal muscle cells, mouse C2C12 cells, and Jurkat, cells received 0.02 mL of the transfection complex. Cells were incubated for 42 hours at 37° C. at 5% CO2. Plates were read on a fluorescent plate reader. Cells were also examined visually under a microscope to assess the extent of transfection (in terms of the percent of cells transfected) with a fluorescent microscope. Other modes of analysis, for example quantification with B-galactocidase or luciferase reports plasmids can also be used.
# The fusogenic peptide was added to the DOMTA/peptide formulation to achieve a final concentration of 0.1 mg/mL to see if transfection reagents were further enhanced by the addition of a fusogenic peptide and could provide higher transfection efficiency into HeLa cells and expression than the commercially available Lipofectamine 2000.
row,Substance,"Relative Fluorescence DOTMA/SEQ ID NO: 72/Peptide, HeLa Cells (RF)"
1,335 (TVFSVDQDNMLE) [compound 335],12866
2,236 (KNNQKSEPLIGRKKT) [compound 236],5993
3,501 (DLGTAGSCLRRFSTM) [compound 501],23571

# Same assay, conditions: 0.2 μL of DOTMA/SEQ ID NO: 72/Peptide in well of a 96 well plate
row,Substance,"Relative Fluorescence DOTMA/SEQ ID NO: 72/Peptide, HeLa Cells (RF)"
1,335 (TVFSVDQDNMLE) [compound 335],12458
2,236 (KNNQKSEPLIGRKKT) [compound 236],8846
3,501 (DLGTAGSCLRRFSTM) [compound 501],23993

# Same assay, conditions: 0.3 μL of DOTMA/SEQ ID NO: 72/Peptide in well of a 96 well plate
row,Substance,"Relative Fluorescence DOTMA/SEQ ID NO: 72/Peptide, HeLa Cells (RF)"
1,335 (TVFSVDQDNMLE) [compound 335],11547
2,236 (KNNQKSEPLIGRKKT) [compound 236],8492
3,501 (DLGTAGSCLRRFSTM) [compound 501],20410

# Same assay, conditions: 0.4 μL of DOTMA/SEQ ID NO: 72/Peptide in well of a 96 well plate
row,Substance,"Relative Fluorescence DOTMA/SEQ ID NO: 72/Peptide, HeLa Cells (RF)"
1,335 (TVFSVDQDNMLE) [compound 335],9753
2,236 (KNNQKSEPLIGRKKT) [compound 236],7316
3,501 (DLGTAGSCLRRFSTM) [compound 501],14749

# Test system: NL-1 iPS Cells
# Assay: GFP plasmid transfection with DOTMA/DOPE plus surface ligand peptide, fluorescent plate reader (Example 1)
# Assay type: cell-based
# Settings: DOTMA/DOPE + peptide linked to R12 or K16; EF1Alpha eGFP plasmid; 42 hours
# Description: as §1, §2
# (§3) Surface ligand that caused increase expression of GFP over the lipid DOTMA with no surface ligand were considered to enhance transfection or had higher % cells transfected were considered to enhance transfection. Peptides that gave greater than 2-fold enhancement are noted in bold and could be further optimized by adding different transfection enhancers or could be used with different cationic lipids or polymers.
# (§4) Tables 2-7, below, provide the results of the transfection enhancements with the various cell types, while Table 8 lists the peptides that were determined by visual inspection to enhance the transfection of the denoted cell lines over the lipid DOTMA.
row,Substance,Relative Fluorescence of Transfection of NL-1 iPS Cells (RF)
1,239 (KNSFMALYLSKGRLVFALG) [compound 239],4129
2,226 (ANGQTPIQRYIK) [compound 226],24920
3,205 (AASIKVAVSADR) [compound 205],13140
4,234 (YEKPGSPPREVVPRPRPGV) [compound 234],14410
5,361 (YIGSR) [compound 361],9363
6,363 (LAGSCLARFSTM) [compound 363],4189
7,224 (KPDVRSYTITG) [compound 224],25209
8,335 (TVFSVDQDNMLE) [compound 335],14424
9,107 (RRRRRRRR) [compound 107],1441
10,349 (RNIAEIIKDI) [compound 349],33103
11,236 (KNNQKSEPLIGRKKT) [compound 236],43542 and 22256
12,359 (KAFDITYVRLKF) [compound 359],5548
13,256 (RQVFQVAYIIIKA) [compound 256],1825
14,230 (WQPPRARI) [compound 230],14524
15,371 (GPAGKDGEAGAQG) [compound 371],17587

# Test system: HuVec Cells
# Assay: as above
# Assay type: cell-based
# Settings: DOTMA/DOPE + peptide linked to R12 or K16; EF1Alpha eGFP plasmid; 42 hours
# Description: as §1, §2, §3, §4
row,Substance,Relative Fluorescence of Transfection of HuVec Cells (RF)
1,239 (KNSFMALYLSKGRLVFALG) [compound 239],1404
2,226 (ANGQTPIQRYIK) [compound 226],20864
3,205 (AASIKVAVSADR) [compound 205],8309
4,234 (YEKPGSPPREVVPRPRPGV) [compound 234],13956
5,361 (YIGSR) [compound 361],6017
6,363 (LAGSCLARFSTM) [compound 363],1383
7,224 (KPDVRSYTITG) [compound 224],15945
8,335 (TVFSVDQDNMLE) [compound 335],6350
9,349 (RNIAEIIKDI) [compound 349],22907
10,236 (KNNQKSEPLIGRKKT) [compound 236],14418
11,359 (KAFDITYVRLKF) [compound 359],3024
12,235 (KARSFNVNQLLQD) [compound 235],26940
13,256 (RQVFQVAYIIIKA) [compound 256],3030
14,230 (WQPPRARI) [compound 230],9067
15,371 (GPAGKDGEAGAQG) [compound 371],10669

# Test system: Human Fibroblast Cells
# Assay: as above
# Assay type: cell-based
# Settings: DOTMA/DOPE + peptide linked to R12 or K16; EF1Alpha eGFP plasmid; 42 hours
# Description: as §1, §2, §3, §4
row,Substance,Relative Fluorescence of Transfection of Human Fibroblast Cells (RF)
1,239 (KNSFMALYLSKGRLVFALG) [compound 239],4084
2,226 (ANGQTPIQRYIK) [compound 226],3431
3,205 (AASIKVAVSADR) [compound 205],8550
4,234 (YEKPGSPPREVVPRPRPGV) [compound 234],4145
5,361 (YIGSR) [compound 361],7014
6,363 (LAGSCLARFSTM) [compound 363],3008
7,224 (KPDVRSYTITG) [compound 224],5995
8,335 (TVFSVDQDNMLE) [compound 335],8534
9,349 (RNIAEIIKDI) [compound 349],8810
10,236 (KNNQKSEPLIGRKKT) [compound 236],3630 and 3000
11,359 (KAFDITYVRLKF) [compound 359],3206
12,256 (RQVFQVAYIIIKA) [compound 256],2656
13,230 (WQPPRARI) [compound 230],11771
14,371 (GPAGKDGEAGAQG) [compound 371],4584
15,501 (DLGTAGSCLRRFSTM) [compound 501],9473

# Test system: HeLa Cells
# Assay: as above
# Assay type: cell-based
# Settings: DOTMA/DOPE + peptide linked to R12 or K16; EF1Alpha eGFP plasmid; 42 hours
# Description: as §1, §2, §3, §4
row,Substance,Relative Fluorescence of Transfection of HeLa Cells (RF)
1,239 (KNSFMALYLSKGRLVFALG) [compound 239],2717
2,226 (ANGQTPIQRYIK) [compound 226],7340
3,205 (AASIKVAVSADR) [compound 205],26368
4,234 (YEKPGSPPREVVPRPRPGV) [compound 234],3867
5,361 (YIGSR) [compound 361],3698
6,363 (LAGSCLARFSTM) [compound 363],2590
7,224 (KPDVRSYTITG) [compound 224],5559
8,335 (TVFSVDQDNMLE) [compound 335],26954
9,107 (RRRRRRRR) [compound 107],75
10,349 (RNIAEIIKDI) [compound 349],4433
11,236 (KNNQKSEPLIGRKKT) [compound 236],7202 and 5042
12,359 (KAFDITYVRLKF) [compound 359],3136
13,256 (RQVFQVAYIIIKA) [compound 256],2243
14,230 (WQPPRARI) [compound 230],8944
15,371 (GPAGKDGEAGAQG) [compound 371],5180

# Test system: Jurkat Cells
# Assay: as above
# Assay type: cell-based
# Settings: DOTMA/DOPE + peptide linked to R12 or K16; EF1Alpha eGFP plasmid; 42 hours
# Description: as §1, §2, §3, §4
row,Substance,Relative Fluorescence of Transfection of Jurkat Cells (RF)
1,239 (KNSFMALYLSKGRLVFALG) [compound 239],2343
2,226 (ANGQTPIQRYIK) [compound 226],12976
3,205 (AASIKVAVSADR) [compound 205],2298
4,234 (YEKPGSPPREVVPRPRPGV) [compound 234],5441
5,361 (YIGSR) [compound 361],7006
6,363 (LAGSCLARFSTM) [compound 363],2432
7,224 (KPDVRSYTITG) [compound 224],13170
8,335 (TVFSVDQDNMLE) [compound 335],4567
9,349 (RNIAEIIKDI) [compound 349],23167
10,359 (KAFDITYVRLKF) [compound 359],1880
11,256 (RQVFQVAYIIIKA) [compound 256],3322
12,230 (WQPPRARI) [compound 230],10229
13,371 (GPAGKDGEAGAQG) [compound 371],6093
14,501 (DLGTAGSCLRRFSTM) [compound 501],12350

# Test system: some examined cell types
# Assay: Summary of Example 1: transfection expression and % cells transfected over the no peptide control
# Assay type: cell-based
# Settings: on some examined cell types
# Description: as §1, §2, §3
row,Substance,transfection expression and % cells transfected over the no peptide control
1,239 (KNSFMALYLSKGRLVFALG) [compound 239],increased transfection expression and the % cells transfected
2,226 (ANGQTPIQRYIK) [compound 226],increased transfection expression and the % cells transfected
3,205 (AASIKVAVSADR) [compound 205],increased transfection expression and the % cells transfected
4,361 (YIGSR) [compound 361],increased transfection expression and the % cells transfected
5,349 (RNIAEIIKDI) [compound 349],increased transfection expression and the % cells transfected
6,236 (KNNQKSEPLIGRKKT) [compound 236],increased transfection expression and the % cells transfected
7,359 (KAFDITYVRLKF) [compound 359],increased transfection expression and the % cells transfected
8,256 (RQVFQVAYIIIKA) [compound 256],increased transfection expression and the % cells transfected
9,230 (WQPPRARI) [compound 230],increased transfection expression and the % cells transfected
10,501 (DLGTAGSCLRRFSTM) [compound 501],increased transfection expression and the % cells transfected
11,393 (LGTIPG) [compound 393],increased transfection expression and the % cells transfected

# Test system: C2C12 Cells
# Assay: GFP plasmid transfection with DOTMA/DOPE plus surface ligand peptide, fluorescent plate reader (Example 1)
# Assay type: cell-based, mouse
# Settings: DOTMA/DOPE + peptide linked to R12 or K16; EF1Alpha eGFP plasmid; 42 hours
# Description: as §1, §2, §3, §4
row,Substance,Relative Fluorescence of Transfection of C2C12 Cells (RF)
1,239 (KNSFMALYLSKGRLVFALG) [compound 239],10620
2,226 (ANGQTPIQRYIK) [compound 226],1664
3,205 (AASIKVAVSADR) [compound 205],2102
4,234 (YEKPGSPPREVVPRPRPGV) [compound 234],681
5,361 (YIGSR) [compound 361],585
6,363 (LAGSCLARFSTM) [compound 363],1080
7,224 (KPDVRSYTITG) [compound 224],1469
8,335 (TVFSVDQDNMLE) [compound 335],4689
9,359 (KAFDITYVRLKF) [compound 359],5693
10,256 (RQVFQVAYIIIKA) [compound 256],3207
11,230 (WQPPRARI) [compound 230],2606
12,371 (GPAGKDGEAGAQG) [compound 371],983
13,502 (RNIAEIIKDI) [compound 502],2589
14,501 (DLGTAGSCLRRFSTM) [compound 501],5913
